Earlier results in US7625898B2, “Posaconazole polymer conjugates and methods of treatment using posaconazole and polymer conjugates thereof” (Enzon Pharmaceuticals, Inc., priority 2007, dated 2009).

Conditions: background statement on unmodified posaconazole

CC[C@@H]([C@H](C)O)n1ncn(-c2ccc(N3CCN(c4ccc(OC[C@@H]5CO[C@@](Cn6cncn6)(c6ccc(F)cc6F)C5)cc4)CC3)cc2)c1=O [Posaconazole, posaconazole]
water solubility: < 2 µg/mL
